From US5643954A, “Method of preventing and alleviating stress in a healthy mammal in need thereof” (priority 1993, dated 1997)

Experiments:
[1] = testings with Corazolin (Corazol), mice; format: in vivo; conditions: mouse, in vivo; 150 mg/kg of weight; read-out: death of the animals
[2] = system: Corazol convulsions; assay: testings with Corazolin (Corazol), mice; format: in vivo; conditions: 150 mg/kg of weight
[3] = orientation motive activity of mice, automated registration of movements; format: in vivo, mice (male); conditions: for Number of movements in 10 min in register: M ± m
Method: Experiments were conducted in vivo on male mice weighing 18-22 g and male rats weighing 200-250 g, as well as in vitro on the isolated organs: a guinea pig's ileum and a rat's seminal effervesces.

[4] = system: hexenal sleep; assay: comparative interaction test with hexenal, rats; format: in vivo; conditions: for Hexanal sleep duration: M ± m
[5] = system: Corazol twitches; assay: comparative interaction test with Corazol, rats; format: in vivo; conditions: M ± m
[6] = system: bioelectric activity of rats' brain; assay: spontaneous bioelectrical activity of rats' brain (EEG, implanted electrodes); format: in vivo; conditions: 90 mg/kg
[7] = format: in vivo; conditions: in words

| Structure (SMILES) | mortality [1] | time to death of the animals [2] | Number of movements in 10 min in register ([3]; 100 mg/kg intraperitoneally) | Number of movements in 10 min in register ([3]; 200 mg/kg intraperitoneally) | Number of movements in 10 min in register ([3]; 500 mg/kg intraperitoneally) | motor activity ([3]; in words) | Hexanal sleep duration ([4]; 100 mg/kg) | Hexanal sleep duration ([4]; 200 mg/kg) | hexenal sleep ([4]; in words) | Corazol twitches, latent period ([5]; 100 mg/kg) | Corazol twitches, latent period ([5]; 200 mg/kg) | Maximal effect appearance time from the start of experiment [6] | Nature of effect [6] | Nature of effect, effective for [6] | Index, fast activ. ([6]; M ± m) | Index, slow activ. ([6]; M ± m) | tonico-extensor component of Corazol and strychnine twitches and electrical shock [7] |
| --- | --- | --- | --- | --- | --- | --- | --- | --- | --- | --- | --- | --- | --- | --- | --- | --- | --- |
| C1CCc2nnnn2CC1 [Corazolin, reference compound] | 100% | 2 to 4 min | – | – | – | – | – | – | – | – | – | – | – | – | – | – | – |
| NCC(CC(=O)O)c1ccccc1 (centres unmarked) [phenibut, reference compound] | – | – | 434 ± 4.4 | 186 ± 8.7 | 19 ± 3.0 | sharply inhibit motor activity as a dose is increased | 110.0 ± 8.3 min | 130.0 ± 8.5 min | prolong hexenal sleep | 53.0 ± 5.4 min | 50.0 ± 2.8 min | 40 min | Permanent | over 3 hrs | 77 ± 0.9% | 87 ± 3.1% | reduce the tonico-extensor component of Corazol and strychnine twitches and electrical shock |
